Values belong to the compound of their own block, whether it stands above or below them.
Experiments:
[1] = biological target: CRBN (Homo sapiens, UniProt Q96SW2); test: Surface plasmon resonance with immobilized His-tagged cereblon; conditions: SPR; average of at least 2 experiments; N.B - no binding observed
Description: With unprecedented access to novel analogues of ImiDs, the structure-activity relationships with respect to Cereblon binding and the degradation of Aiolos (IKZF3) and CK1αwe were explored. To assess binding of ImiD analogues to Cereblon directly, an SPR assay with His-tagged Cereblon immobilized was employed. Dose-response curves were measured for each analogue and Kd values calculated.
Surface Plasmon Resonance
The surface plasmon resonance (SPR) experiments were conducted on a S200 Biacore (GE Healthcare). His-tagged cereblon protein was immobilized on a carboxymethylated dextran surface with nitriloacetic acid (NTA), taking advantage of NTA/Ni2+ chelation. The prepared surface equilibrated overnight in running buffer (10 mM HEPES buffer @ pH 7.4, 150 mM NaCl, 0.4 mg/mL BSA, 0.005% P20, 2% DMSO).
All compounds were prepared in 100% DMSO stock plates with a top concentration of 5 mM in a 3× serial dilution. Compounds were transferred from the stock plate to the assay plate and diluted into running buffer containing no DMSO.
Data analysis was performed in S200 Bia-evaluation software (GE Healthcare). Blanks were subtracted and data was corrected for DMSO using a standard DMSO curve.

[2] = test system: c-Myc; test: Western blot analysis of c-Myc in BL cell lines; format: cell-based; conditions: for c-Myc protein level (immunoblot): overnight
Description: (§1) Cultured cells were collected in lysis buffer containing 40 mM HEPES (pH 7.4), 140 mM NaCl, 2.5 mM EDTA, 1% NP-40, 0.1% SDS and protease inhibitor cocktail. After 10 minutes of centrifugation (14000 rpm), supernatant was collected for protein concentration determination by BCA method and subjected for immunoblotting by standard protocol. Western blot results were visualized using Bio-Rad Clarity ECL Western Blotting Substrate on Bio-Rad ChemiDoc™ MP imaging system.
A separate set of cells were treated in the same manner, except that DMSO was used in place of the inhibitor. Following treatment, cell lysates were collected and analyzed by immunoblot for c-Myc and Actin.
Cells were re-seeded and incubated without inhibitor for 0 hr, 0.5 hr, 1.0 hr, 2.0 hr, 3.0 hr, 4.0 hr, and 6.0 hr. Cell lysates were then collected at the various time points and analyzed by immunoblot for c-Myc and Actin. In a parallel control experiment, NAMALWA cells were treated in the same manner, except DMSO was used in place of JQ1.
After treatment, the cells were either lysed (to evaluate the suppression of c-Myc by the inhibitors) or washed to remove the inhibitor, re-seeded, and incubated without inhibitor for 4.0 hours (to evaluate the reversibility of c-Myc suppression). Cell lysates were collected and analyzed by immunoblot for c-Myc and Actin.
Following treatment, cell lysates were collected and analyzed by immunoblot for BRD4, c-Myc and Actin.
(§2) Cells were re-seeded in fresh medium and incubated without any compound for 0 hr, 2.0 hr, 4.0 hr, 6.0 hr, and 24.0 hr. In a parallel control experiment, cells were treated in the same manner, except DMSO was used in place of inhibitor. Lysates were collected and analyzed by immunoblot for BRD4, c-Myc, and Actin.

[3] = test system: SLC19A1; test: RT-QPCR of SLC19A1 gene expression in NAMALWA cells; format: cell-based; conditions: A825 0.1 μM 24 h, washout, 24 hours post-treatment
Description: RNA extraction was performed with Aurum™ Total RNA Mini Kit (#732-6820) from Bio-Rad. First-strand cDNA from total RNA was synthesized with High-Capacity cDNA Reverse Transcription Kit (#4368813) from Life Technologies according to manufacturer's instruction. Quantitative PCR was performed using Bio-rad SsoAdvanced™ Universal SYBR® Green Supermix (#172-5271). The following primers were used: […]
Cells were re-seeded in fresh medium and incubated without any inhibitor for 0 hr, 6.0 hr, and 24.0 hr. In a parallel control experiment, cells were treated in the same manner, except DMSO was used in place of inhibitor. At each time point, RNA was extracted from the lysates, reverse-transcribed into cDNA, and quantified by QPCR with SLC19A1 specific primers. GAPDH was also quantified by QPCR as an internal control.

[4] = test system: BL cell lines (NAMALWA, Ramos, CA-46, Daudi); test: Proliferation assay (CellTiter-Glo) in BL cell lines; format: cell-based
Description: To assess the effect of the inhibitors on proliferation, cells (50,000/100 μl) were seeded in 96-well tissue culture plates followed by addition of compound at the indicated concentration. After 72 hours, 100 μL per well of reconstituted CellTiter-Glo (CTG) reagent (#G7572 from Promega) was added and read on Cytation 3 imaging reader from BioTek. Relative cell growth was determined by comparing assay readings of treated cells with control DMSO treated cells.
Specifically, NAMALWA, Ramos, CA-46, and Daudi cell lines were seeded at 50,000 cells/100 μl in 96-well plates. […] Following treatment, the relative proliferation of the samples was determined by CTG assay 72 hours following treatment.
Cells were re-seeded in fresh medium and incubated without any compound for 0 hr, 24.0 hr, and 48.0 hr. In a parallel control experiment, cells were treated in the same manner, except DMSO was used in place of inhibitor. Following treatment, the relative proliferation of the samples was determined by CTG assay.
In a parallel control experiment, cells were treated in the same manner, except DMSO was used in place of inhibitor. Following treatment, the relative proliferation of the samples was determined by CTG assay.
In a parallel experiment, cells were treated in the same manner, except DMSO was used in place of pomalidomide.

[5] = test system: caspase 3/7; test: Caspase 3/7-Glow assay in BL cell lines; format: cell-based; conditions: 24 hours, A825 0.1 μM, JQ1 1.0 μM, OTX015 1.0 μM
[6] = test system: PARP; test: PARP cleavage immunoblot in BL cells; format: cell-based; conditions: 48 hours; A825 0.1 uM, JQ1 and OTX15 up to 10.0 μM; Ramos cells
Description: as §1
Lysates were collected and analyzed by immunoblot for PARP cleavage with actin as loading control.

[7] = biological target: T1, BRD4 (Homo sapiens, UniProt O60885); test: Western blot analysis of BRD4 in BL cell lines; format: cell-based; conditions: pomalidomide 10 μM alone; overnight; NAMALWA and Ramos cells
T1 construct: endogenous in cells; host or cells: NAMALWA, Ramos, CA-46, DAUDI
Description: as §1
A separate set of cells were treated in the same manner, except that DMSO was used in place of the inhibitor. […] Following treatment, cell lysates were collected and analyzed by immunoblot for BRD4 and Actin.
Specifically, NAMALWA and Ramos cells were treated with 300 nM of each inhibitor for 0 hr, 0.5 hr, 1.0 hr, 2.0 hr, 4.0 hr, 7.0 hr, 24 hr, and 48.0 hr. Following treatment, cell lysates were collected and analyzed by immunoblot for BRD4 and Actin.
(§3) Following treatment, cell lysates were collected and analyzed by immunoblot for BRD4 and Actin.
as §3, §3, §3, §2

[8] = 100 nM to 1000 nM, NAMALWA cells

CRBN, sequence (Q96SW2 whole entry): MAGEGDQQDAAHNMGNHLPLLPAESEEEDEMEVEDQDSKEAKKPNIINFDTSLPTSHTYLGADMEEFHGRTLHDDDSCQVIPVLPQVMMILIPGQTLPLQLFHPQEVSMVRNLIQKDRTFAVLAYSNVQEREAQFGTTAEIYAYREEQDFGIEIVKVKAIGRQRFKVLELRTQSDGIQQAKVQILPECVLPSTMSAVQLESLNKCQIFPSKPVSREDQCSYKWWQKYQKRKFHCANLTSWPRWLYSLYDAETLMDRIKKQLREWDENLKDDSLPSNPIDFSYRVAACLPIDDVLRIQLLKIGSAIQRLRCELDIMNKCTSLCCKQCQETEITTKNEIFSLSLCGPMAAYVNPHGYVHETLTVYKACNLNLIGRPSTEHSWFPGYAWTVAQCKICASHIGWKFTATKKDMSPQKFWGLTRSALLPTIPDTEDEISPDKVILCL

Kd [1]: 221 ± 52 nM
Structure (SMILES): CC(C)(C)c1ccc2c(c1)C(=O)N(C1CCC(=O)NC1=O)C2=O (centres unmarked) [Compound 11]

Kd [1]: 111 ± 6 nM
Structure (SMILES): O=C1CCC(N2C(=O)c3cccc4cccc(c34)C2=O)C(=O)N1 (centres unmarked) [Compound 12]

Kd [1]: > 11000 nM
Structure (SMILES): O=C1CCC(N2C(=O)c3ccc([N+](=O)[O-])cc3C2=O)C(=O)N1 (centres unmarked) [Compound 16]

Structure (SMILES): Cc1sc2c(c1C)C(c1ccc(Cl)cc1)=N[C@@H](CC(=O)Nc1ccc(OCCOCCOCCOCCNc3cccc4c3C(=O)N(C3CCC(=O)NC3=O)C4=O)cc1)c1nnc(C)n1-2 (some centres unmarked) [Compound A825]
c-Myc protein level after compound removal ([2]; A825 0.1 μM 24 h, washout, 24 hours post-treatment, NAMALWA cells): well below the control sample | c-Myc downregulation (immunoblot) ([2]; A825 100-1000 nM overnight, NAMALWA and Ramos cells): much more pronounced downregulation of c-Myc compared to JQ1 and OTX-15 | SLC19A1 gene expression after compound removal [3]: greatly reduced compared to the control sample | suppression of proliferation ([4]; 72 hours, all BL cell lines tested): more pronounced suppression of proliferation compared to JQ1 or OTX15 | anti-proliferation effect ([4]; A825 10 nM with 10.0 μM pomalidomide, 72 hours, all cell lines tested): prevented the anti-proliferation effect | duration of proliferation suppression post-treatment ([4]; A825 0.1 μM 24 h, washout, NAMALWA cells): more than 48 hours | caspase 3/7 activity [5]: statistically significant increase in caspase activity | apoptosis by PARP cleavage [6]: prominent PARP cleavage

Structure (SMILES): Cc1sc2c(c1C)C(c1ccc(Cl)cc1)=N[C@@H](CC(=O)OC(C)(C)C)c1nnc(C)n1-2 [JQ1]
c-Myc protein level (immunoblot) [2, 8]: significant suppression | time for c-Myc protein to return to control level after inhibitor removal ([2]; 1000 nM 24 h, washout, NAMALWA cells): ≤ 3.0 h | c-Myc protein level (immunoblot) ([2]; up to 3000 nM, NAMALWA cells): neither JQ1 nor OTX-15 was able to completely suppress c-Myc expression | apoptosis by PARP cleavage [6]: significantly higher dose

Structure (SMILES): Cc1sc2c(c1C)C(c1ccc(Cl)cc1)=N[C@@H](CC(=O)Nc1ccc(O)cc1)c1nnc(C)n1-2 [OTX-15]
c-Myc protein level (immunoblot) [2, 8]: significant suppression | c-Myc protein level (immunoblot) ([2]; up to 3000 nM, NAMALWA cells): neither JQ1 nor OTX-15 was able to completely suppress c-Myc expression | apoptosis by PARP cleavage [6]: significantly higher dose

BRD4 protein level (immunoblot) [7]: not affected
Structure (SMILES): Nc1cccc2c1C(=O)N(C1CCC(=O)NC1=O)C2=O (centres unmarked) [Pomalidomide, pomalidomide, reference compound]
effect on BL cell proliferation ([4]; pomalidomide alone up to 10 μM, 72 hours): did not result in a significant effect on the proliferation

Reference: US11834460B2, “Imide-based modulators of proteolysis and associated methods of use” (YALE UNIVERSITY, priority 2018, dated 2023)
